Test results from patent publication US10696651B2, “Heterocyclic compound” (Takeda Pharmaceutical Company Limited, priority 2016, dated 2020).

Columns and labels:
[1] = test system: human acute lymphoblastic leukemia cell line CCRF-CEM; assay: In vitro tumor proliferation inhibitory assay with combined use of asparaginase; type: cell-based; settings: compound concentration 100 nM, L-asparaginase 0.1 U/mL, 72 hr, read-out: in vitro cell proliferation inhibitory rate (%)
Protocol: A cell suspension (40 μL) (5000 cells/well) of human acute lymphoblastic leukemia cell line CCRF-CEM obtained from ATCC (American Type Culture Collection) was seeded on a 384 well plate using RPMI1640 medium. The seeded cells were incubated (37° C., 5% CO2) overnight to 24 hr at the longest. L-asparaginase (Sigma-Aldrich Co. LLC.) was dissolved in PBS and treated in each well to a final concentration of 0.1 U/mL. Furthermore, each test compound was dissolved (10 mM) in DMSO, delivered to wells by using TECAN HP D300 (TECAN), and the plate was incubated for 72 hr (37° C., 5% CO2). A well without addition of compound was treated similarly as a control group. […] After incubation for 10 min, cell proliferation inhibitory rate was measured by the amount of ATP which is a cell viability marker.
Luminescence of cells showing ATP amount was measured using ARVO MX (PerkinElmer). Based on the luminescence value of the control group without addition of test compound solution and the treatment group with addition of test compound, the cell proliferation inhibitory rate (%) of the test compound at a compound concentration of 100 nM was calculated by the following formula and the results thereof are shown in Table 7. Inhibitory rate (%)=(1−(luminescence value of treatment group)÷(luminescence value of control group))×100

[2] = test system: human acute lymphoblastic leukemia cells CCRF-CEM; assay: In vivo tumor proliferation inhibitory assay with combined use of asparaginase (CCRF-CEM xenograft); settings: CCRF-CEM xenograft in SCID mouse; for in vivo tumor proliferation inhibitory rate (%), GCN2 inhibitor: GCN2 inhibitor alone
Text: One million human acute lymphoblastic leukemia cells CCRF-CEM obtained from ATCC (American Type Culture Collection) were suspended in Matrigel solution (Corning) and implanted subcutaneously into 6-week-old female SCID mouse (CLEA Japan, Inc.) by injection. The mice in which the tumor engrafted to a size of about 200 mm^3 tumor volume after transplantation were selected and 5 mice per group were used for the experiment. A 0.5% methylcellulose suspension of the compound was orally administered twice per day for 9 days. Each compound was administered twice per day and the dose was 10 mg/kg for Example 14 and Example 7, and 6 mg/kg for Example 4. L-asparaginase (Kyowa Hakko Kogyo Co., Ltd.) was subcutaneously administered once per day at a dose of 1000 U/kg. Tumor diameter was measured one day before start of the administration and day 9 of the administration, and the tumor volume was calculated by the formula 1. tumor volume=major axis×minor axis×minor axis×(½) Formula 1
Tumor proliferation inhibitory rate (%) was calculated by the formula 2. tumor proliferation inhibitory rate (%)=(1−(T9−T0)/(C9−C0))×100 Formula 2 T9: average tumor volume of test drug administration group on day 9 of administration, T0: average tumor volume of test drug administration group one day before start of administration, C9: average tumor volume of control group on day 9 of administration, C0: average tumor volume of control group one day before start of administration

[3] = test system: ATF4 expression in human acute lymphoblastic leukemia cell line CCRF-CEM; assay: In vitro ATF4 expression suppression assay (Western blot) in the presence of L-asparaginase; type: cell-based; settings: compound concentration 400 nM, L-asparaginase 0.1 U/mL, 4 hr
Protocol: A cell suspension (40 μL) (500000 cells/well) of human acute lymphoblastic leukemia cell line CCRF-CEM obtained from ATCC (American Type Culture Collection) was seeded on a 12 well plate using RPMI1640 medium. The seeded cells were incubated (37° C., 5% CO2) overnight to 24 hr at the longest. L-asparaginase (Sigma-Aldrich Co. LLC.) was dissolved in PBS and treated in each well to a final concentration of 0.1 U/mL. Furthermore, each test compound was dissolved (10 mM) in DMSO, delivered to wells by using TECAN HP D300 (TECAN), and the plate was incubated for 4 hr (37° C., 5% CO2). A well without addition of compound was treated similarly as a control group. […]
Protein extract solution was subjected to protein quantification with BCA Protein Assay Kit (Thermo Scientific), electrophoresed on 7.5-15% SDS-PAGE gel (DRC), and protein in the gel was transferred to PVDF membrane. […] Thereafter, chemiluminescence was performed using ImmunoStar LD (Wako Pure Chemical Industries, Ltd.), and luminescence intensity was measured by LAS-3000 image analyzer (Fuji Film Co., Ltd.). Furthermore, the expression level of ATF4 was digitized by quantifying the luminescence intensity using Multi Gauge Ver. […]

Nc1ncc(C#Cc2c(F)ccc(NS(=O)(=O)c3cc(Cl)cc(CO)c3Cl)c2F)cn1 [Example 4, N-(3-((2-aminopyrimidin-5-yl)ethynyl)-2,4-difluorophenyl)-2,5-dichloro-3-(hydroxymethyl)benzenesulfonamide]
inhibition at 0.1 µM [1]: 89%
in vivo tumor proliferation inhibitory rate (%), GCN2 inhibitor ([2]; 6 mg/kg oral twice per day for 9 days): 2%
in vivo tumor proliferation inhibitory rate (%), combined use ([2]; compound 6 mg/kg oral twice per day for 9 days combined with L-asparaginase 1000 U/kg s.c. once per day): 60%
in vitro ATF4 expression inhibition ratio (%) [3]: 97%

COc1ncc(Cl)cc1S(=O)(=O)Nc1ccc(F)c(C#Cc2cnc(N)nc2)c1F [Example 7, N-(3-((2-aminopyrimidin-5-yl)ethynyl)-2,4-difluorophenyl)-5-chloro-2-methoxypyridine-3-sulfonamide]
inhibition at 0.1 µM [1]: 90%
in vivo tumor proliferation inhibitory rate (%), GCN2 inhibitor ([2]; 10 mg/kg oral twice per day for 9 days): 7%
in vivo tumor proliferation inhibitory rate (%), combined use ([2]; compound 10 mg/kg oral twice per day for 9 days combined with L-asparaginase 1000 U/kg s.c. once per day): 65%
in vitro ATF4 expression inhibition ratio (%) [3]: 97%
